Measured values from patent publication US9421237B2, “Tripeptide boronic acid or boronic ester, preparative method and use thereof” (PEKING UNIVERSITY, priority 2009, dated 2016).

Experiments:
[1] = target: T1, 20S proteasome extracted from rat liver, chymotryptic-like (CT-L) activity (Rattus norvegicus, UniProt P18421+P28075); experiment: Proteasome inhibition, chymotryptic-like (CT-L) activity, fluorescent peptide Suc-leu-leu-Val-Tyr-AMC; type: biochemical; details: rat liver 20S proteasome, 37° C., 1 h
T1 construct: 20S proteasome extracted from rat liver; from tissue; host or cells: rat liver
Procedure, shortened: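 Rat liver 20S proteasome (1 μg) incubated 1 h at 37° C with compounds and 50 μM Suc-Leu-Leu-Val-Tyr-AMC in 20 mM Tris-HCl.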

[2] = target: T2, 20S proteasome extracted from rat liver, trypsin-like (TL) activity (Rattus norvegicus, UniProt P40112+Q9JHW0); experiment: Proteasome inhibition, trypsin-like (TL) activity, fluorescent peptide Z-Ala-Arg-Arg-AMC; type: biochemical; details: rat liver 20S proteasome, 37° C., 1 h; read-out: T-L (IC50)
T2 construct: 20S proteasome extracted from rat liver; from tissue; host or cells: rat liver
Procedure, shortened: (§1)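 Rat liver 20S proteasome (1 μg) incubated 1 h at 37 °C with compounds, 50 μM fluorogenic peptide and 20 mM Tris-HCl. AMC release read at 380/440 nm and βNA release at 335/410 nm. Inhibition rate calculated against a 0.1% DMSO solvent control.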

[3] = target: T3, 20S proteasome extracted from rat liver, peptidyl-glutamyl-peptide-hydrolyzing (PGPH) enzyme activity (Rattus norvegicus, UniProt P28073+Q9JHW0); experiment: Proteasome inhibition, PGPH activity, fluorescent peptide Z-leu-leu-Glu-βNA; type: biochemical; details: rat liver 20S proteasome, 37° C., 1 h
T3 construct: 20S proteasome extracted from rat liver; from tissue; host or cells: rat liver
Procedure, shortened: as §1

[4] = test system: HL-60 human leukemia cell; experiment: Preliminary anti-tumor screening in vitro, MTT method; type: cell-based; parameters: key to Test results: +++: inhibition rates at three doses are greater than 50%; ++: inhibition rates at two doses are greater than 50%; +: inhibition rate at one dose is greater than 50%; details: HL-60, MTT; for Test results: number of doses with inhibition > 50%; for inhibition at 0.05 µM / inhibition at 0.5 µM / inhibition at 5 µM: Homo sapiens, read-out: Inhibition rate %
Procedure, shortened: (§2)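 In vitro cytotoxicity by routine methods: MTT read-out for HL-60 cells, SRB read-out for BGC-823, Bel-7402 and KB cells.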

[5] = test system: BGC-823 human gastric cancer cell; experiment: Preliminary anti-tumor screening in vitro, SRB method; type: cell-based; parameters: key to Test results: +++: inhibition rates at three doses are greater than 50%; ++: inhibition rates at two doses are greater than 50%; +: inhibition rate at one dose is greater than 50%; details: BGC-823, SRB; for Test results: number of doses with inhibition > 50%; for inhibition at 0.05 µM / inhibition at 0.5 µM / inhibition at 5 µM: Homo sapiens, read-out: Inhibition rate %
Procedure, shortened: as §2

[6] = test system: Bel-7402 human hepatocarcinoma cell; experiment: as above; type: cell-based; parameters: key to Test results: +++: inhibition rates at three doses are greater than 50%; ++: inhibition rates at two doses are greater than 50%; +: inhibition rate at one dose is greater than 50%; details: Bel-7402, SRB; for Test results: number of doses with inhibition > 50%; for inhibition at 0.05 µM / inhibition at 0.5 µM / inhibition at 5 µM: Homo sapiens, read-out: Inhibition rate %
Procedure, shortened: as §2

[7] = test system: KB human nasopharyngeal carcinoma cell; experiment: as above; type: cell-based; parameters: key to Test results: +++: inhibition rates at three doses are greater than 50%; ++: inhibition rates at two doses are greater than 50%; +: inhibition rate at one dose is greater than 50%; details: for inhibition at 0.05 µM / inhibition at 0.5 µM / inhibition at 5 µM: Homo sapiens, read-out: Inhibition rate %; for Test results: number of doses with inhibition > 50%
Procedure, shortened: as §2

[8] = test system: BGC-823 (human gastric carcinoma cell strain); experiment: In vitro anti-tumor activity (IC50), standard MTT method; type: cell-based; details: 72 h, average of three determinations
Protocol: (§3) HL-60, BXPC-3 and U266 were obtained from the American Type Culture Collection (Manassas, Va.), and BGC-823 (human gastric carcinoma cell strain) was obtained from China Pharmaceutical University.
(§4) Test methods: HL-60 cells were cultured in IMDM medium containing 20% fetal bovine serum at 37° C. in 5% CO2; BGC-823 cells and BXPC-3 cells were cultured in RPMI1640 medium containing 10% fetal bovine serum at 37° C. in 5% CO2; U266 cells were cultured in RPMI1640 medium containing 15% fetal bovine serum at 37° C. in 5% CO2.
(§5) The cell growth was measured by the standard MTT method. A dispersions (150 μL, containing 3000 cells) medium was added into each well of a 96-well plate and allowed to grow, after 24 h, ten kinds of medium (50 μL) containing different concentrations of drugs were added into the corresponding wells, and continued to incubate for 72 h. Then a solution containing 5 mg/ml MTT (20 μL) was added into each well and incubated for another 4 h at 37° C. The plate was then centrifugated at 1000 rpm at 4° C. for 5 min, and the medium in upper layer was carefully discarded. The precipitates were dissolved in 100 μL of DMSO, and absorbance was read with an Infinite M200 (Tecan, Austria) microplate reader at 540 nm.
(§6) The result was expressed as IC50 value, which is the average value of three independent determinations.

[9] = test system: BXPC-3 (human pancreatic cancer cell strain); experiment: as above; type: cell-based; details: 72 h, average of three determinations
Protocol: as §3, §4, §5, §6

[10] = test system: HL-60 (promyelocytic leukemia cell strain); experiment: as above; type: cell-based; details: Homo sapiens, 72 h, average of three determinations
Protocol: as §3, §4, §5, §6

[11] = test system: U266 (multiple myeloma cell strain); experiment: as above; type: cell-based; details: Homo sapiens, U-266, 72 h, average of three determinations
Protocol: as §3, §4, §5, §6

Structure (SMILES): CC(C)C[C@H](NC(=O)[C@H](Cc1ccc2ccccc2c1)NC(=O)[C@H](CC(C)C)NC(=O)c1cnccn1)B(O)O [Compound 6f, N-pyrazineformyl-L-leucyl-L-naphthylalanyl-L-leucine Boronic Acid]
- IC50 [1]: 0.079 ± 0.011 nM
- IC50 [2]: > 20 nM
- IC50 [3]: 3.63 ± 1.67 nM
- Test results [4]: ++
- inhibition at 0.05 µM [4]: 1.26%
- inhibition at 0.5 µM [4]: 87.4%
- inhibition at 5 µM [4]: 88.6%
- Test results [5]: +++
- inhibition at 0.05 µM [5]: 80.3%
- inhibition at 0.5 µM [5]: 95.5%
- inhibition at 5 µM [5]: 96.8%
- Test results [6]: ++
- inhibition at 0.05 µM [6]: 39.4%
- inhibition at 0.5 µM [6]: 90.6%
- inhibition at 5 µM [6]: 93.7%
- inhibition at 0.05 µM [7]: 32.1%
- inhibition at 0.5 µM [7]: 95.7%
- inhibition at 5 µM [7]: 97.8%
- Test results [7]: ++
- IC50 [8]: 600 nM
- IC50 [9]: 21.2 nM
- IC50 [10]: 4.6 nM
- IC50 [11]: 9.9 nM

Structure (SMILES): CC(C)C[C@H](NC(=O)[C@H](Cc1ccc2ccccc2c1)NC(=O)[C@H](Cc1ccccc1)NC(=O)c1cnccn1)B(O)O [Compound 6g, N-pyrazineformyl-L-phenylalanyl-L-naphthylalanyl-L-leucine Boronic Acid]
- IC50 [1]: 0.111 ± 0.05 nM
- IC50 [2]: > 20 nM
- IC50 [3]: 3.8 ± 0.983 nM
- Test results [4]: ++
- inhibition at 0.05 µM [4]: 5.68%
- inhibition at 0.5 µM [4]: 87.8%
- inhibition at 5 µM [4]: 88.6%
- Test results [5]: +++
- inhibition at 0.05 µM [5]: 76.9%
- inhibition at 0.5 µM [5]: 95.5%
- inhibition at 5 µM [5]: 97.1%
- Test results [6]: ++
- inhibition at 0.05 µM [6]: 37.9%
- inhibition at 0.5 µM [6]: 72.2%
- inhibition at 5 µM [6]: 93.4%
- inhibition at 0.05 µM [7]: 59.4%
- inhibition at 0.5 µM [7]: 96%
- inhibition at 5 µM [7]: 96.7%
- Test results [7]: +++
- IC50 [8]: 1040 nM
- IC50 [9]: 28.7 nM
- IC50 [10]: 7.4 nM
- IC50 [11]: 15.8 nM
